Test results taken from US10975078B2, “Fused indazole pyridone compounds as antivirals” (priority 2017, dated 2021).

Test system: HBsAg secretion, HepG2-Clone42 cells (Tet-inducible HBV-expressing, HBV ayw strain)
Experiment: HBsAg assay (HBsAg ELISA, secreted HBV sAg from HepG2-Clone42 cells)
Assay type: cell-based
Conditions: Hepatitis B virus, read-out: HBsAg (nM), EC50 = concentration at which HBsAg secretion was reduced 50% compared to DMSO control
Procedure, shortened: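 HepG2-Clone42 cells (Tet-inducible, integrated 1.3-mer HBV ayw) treated 24 h post-seeding with five-fold serial compound dilutions, 0.5% DMSO final. Secreted HBsAg measured by ELISA (A450); EC50 for 50% reduction vs DMSO control after background subtraction, four-parameter logistic fit.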

`COCCCOc1cccc2c3n(nc12)CC(C(C)(C)C)n1cc(C(=O)O)c(=O)cc1-3` (racemic) [Example 2.31, 6-(tert-butyl)-10-(3-methoxypropoxy)-2-oxo-6,7-dihydro-2H-pyrido[2′,1′:3,4]pyrazino[1,2-b]indazole-3-carboxylic Acid] and `COCCCOc1cccc2c3n(nc12)C[C@@H](C(C)(C)C)n1cc(C(=O)O)c(=O)cc1-3` [Example 9.1, (R)-6-(tert-butyl)-10-(3-methoxypropoxy)-2-oxo-6,7-dihydro-2H-pyrido[2′,1′:3,4]pyrazino[1,2-b]indazole-3-carboxylic Acid] cannot be ordered by EC50: under 1 nM for the first, under 1 nM for the second.

`CC(C)(C)C1Cn2nc3c(OCCCO)cccc3c2-c2cc(=O)c(C(=O)O)cn21` (racemic) [Example 2.17, 6-(tert-butyl)-10-(3-hydroxypropoxy)-2-oxo-6,7-dihydro-2H-pyrido[2′,1′:3,4]pyrazino[1,2-b]indazole-3-carboxylic Acid] and `CC(C)(C)C1Cn2nc3c(OCCF)cccc3c2-c2cc(=O)c(C(=O)O)cn21` (racemic) [Example 2.41, 6-(tert-butyl)-10-(2-fluoroethoxy)-2-oxo-6,7-dihydro-2H-pyrido[2′,1′:3,4]pyrazino[1,2-b]indazole-3-carboxylic Acid] cannot be ordered by EC50: under 1 nM for the first, under 1 nM for the second.

First: CC(C)(C)C1Cn2nc3c(OCC4CCOC4)cccc3c2-c2cc(=O)c(C(=O)O)cn21 (racemic) [Example 2.8, 6-(tert-butyl)-2-oxo-10-((tetrahydrofuran-3-yl)methoxy)-6,7-dihydro-2H-pyrido[2′,1′:3,4]pyrazino[1,2-b]indazole-3-carboxylic Acid]
Second: CC(C)(C)C1Cn2nc3c(OCC4COCCO4)cccc3c2-c2cc(=O)c(C(=O)O)cn21 (racemic) [Example 2.22, 10-((1,4-dioxan-2-yl)methoxy)-6-(tert-butyl)-2-oxo-6,7-dihydro-2H-pyrido[2′,1′:3,4]pyrazino[1,2-b]indazole-3-carboxylic Acid]
The EC50 of the first is lower: under 1 nM for the first, 1 to 100 nM for the second.

First: CC(C)(C)C1Cn2nc3c(OC4CCNCC4)cccc3c2-c2cc(=O)c(C(=O)O)cn21 (racemic) [Example 2.27, 6-(tert-butyl)-2-oxo-10-(piperidin-4-yloxy)-6,7-dihydro-2H-pyrido[2′,1′:3,4]pyrazino[1,2-b]indazole-3-carboxylic Acid]
Second: CC(C)(C)C1Cn2nc3c(OC4CCC4)cccc3c2-c2cc(=O)c(C(=O)O)cn21 (racemic) [Example 2.29, 6-(tert-butyl)-10-cyclobutoxy-2-oxo-6,7-dihydro-2H-pyrido[2′,1′:3,4]pyrazino[1,2-b]indazole-3-carboxylic Acid]
The EC50 of the first is higher: over 100 nM for the first, under 1 nM for the second. The second is the more potent here.

First: CN(C)CCCOc1cccc2c3n(nc12)CC(C(C)(C)C)n1cc(C(=O)O)c(=O)cc1-3 (racemic) [Example 2.43, 6-(tert-butyl)-10-(3-(dimethylamino)propoxy)-2-oxo-6,7-dihydro-2H-pyrido[2′,1′:3,4]pyrazino[1,2-b]indazole-3-carboxylic Acid]
Second: CC(C)(C)C1Cn2nc3c(OCCCS(C)(=O)=O)cccc3c2-c2cc(=O)c(C(=O)O)cn21 (racemic) [Example 2.30, 6-(tert-butyl)-10-(3-(methylsulfonyl)propoxy)-2-oxo-6,7-dihydro-2H-pyrido[2′,1′:3,4]pyrazino[1,2-b]indazole-3-carboxylic Acid]
The EC50 of the first is higher: over 100 nM for the first, 1 to 100 nM for the second. The second is the more potent here.

First: COc1ccc2c3n(nc2c1)CC(C(C)(C)C)n1cc(C(=O)O)c(=O)cc1-3 (single isomer, unassigned) [Example 1.2-I, 6-(tert-butyl)-11-methoxy-2-oxo-6,7-dihydro-2H-pyrido[2′,1′:3,4]pyrazino[1,2-b]indazole-3-carboxylic acid]
Second: CC(C)(C)C1Cn2nc3c(OCC(O)CO)cccc3c2-c2cc(=O)c(C(=O)O)cn21 (racemic) [Example 2.28, 6-(tert-butyl)-10-(2,3-dihydroxypropoxy)-2-oxo-6,7-dihydro-2H-pyrido[2′,1′:3,4]pyrazino[1,2-b]indazole-3-carboxylic Acid]
The EC50 of the first is lower: 1 to 100 nM for the first, over 100 nM for the second.

`CC(C)(C)C1Cn2nc3c(OC4CCOCC4)cccc3c2-c2cc(=O)c(C(=O)O)cn21` (racemic) [Example 2.38, 6-(tert-butyl)-2-oxo-10-((tetrahydro-2H-pyran-4-yl)oxy)-6,7-dihydro-2H-pyrido[2′,1′:3,4]pyrazino[1,2-b]indazole-3-carboxylic Acid] showed an EC50 of 1 to 100 nM.

Same assay, conditions: read-out: HBsAg, EC50 = concentration at which HBsAg secretion was reduced 50% compared to DMSO control

`CC(C)(C)C1Cn2nc3c(OC[C@H]4CCC(=O)N4)cccc3c2-c2cc(=O)c(C(=O)O)cn21` (single isomer, unassigned) [Example 2.34-II] and `COCCOc1cccc2c3n(nc12)CC(C(C)(C)C)n1cc(C(=O)O)c(=O)cc1-3` (single isomer, unassigned) [Example 2.2-I, 6-(tert-butyl)-10-(2-methoxyethoxy)-2-oxo-6,7-dihydro-2H-pyrido[2′,1′:3,4]pyrazino[1,2-b]indazole-3-carboxylic Acid] cannot be ordered by EC50: over 100 nM for the first, over 100 nM for the second.

First: COCCCOc1cccc2c3n(nc12)CC(C(C)(C)C)n1cc(C(=O)O)c(=O)cc1-3 (single isomer, unassigned) [Example 2.1-II, 6-(tert-butyl)-10-(3-methoxypropoxy)-2-oxo-6,7-dihydro-2H-pyrido[2′,1′:3,4]pyrazino[1,2-b]indazole-3-carboxylic Acid]
Second: COCCCOc1cccc2c3n(nc12)CC(C(C)(C)C)n1cc(C(=O)O)c(=O)c(F)c1-3 (single isomer, unassigned) [Example 8.1-I, 6-(tert-butyl)-1-fluoro-10-(3-methoxypropoxy)-2-oxo-6,7-dihydro-2H-pyrido[2′,1′:3,4]pyrazino[1,2-b]indazole-3-carboxylic Acid]
The EC50 of the first is lower: 1 to 100 nM for the first, over 100 nM for the second.

Compared with `CC1(C)CCC2C1n1cc(C(=O)O)c(=O)cc1-c1c3cccc(F)c3nn12` (single isomer, unassigned) [Example 5.2-I, 12-fluoro-3,3-dimethyl-7-oxo-2,3,3a,14a-tetrahydro-1H,7H-cyclopenta[5,6]pyrido[2′,1′:3,4]pyrazino[1,2-b]indazole-6-carboxylic Acid], `COc1cccc2c3n(nc12)C1CCC(C)(C)C1n1cc(C(=O)O)c(=O)cc1-3` (single isomer, unassigned) [Example 5.1-I, 12-methoxy-3,3-dimethyl-7-oxo-2,3,3a,14a-tetrahydro-1H,7H-cyclopenta[5,6]pyrido[2′,1′:3,4]pyrazino[1,2-b]indazole-6-carboxylic Acid] is lower in EC50: 1 to 100 nM for the first, under 1 nM for the second. The second is the more potent here.

`CC(C)Oc1cccc2c3n(nc12)CC(C(C)(C)C)n1cc(C(=O)O)c(=O)cc1-3` (single isomer, unassigned) [Example 2.47-II, 6-(tert-butyl)-10-isopropoxy-2-oxo-6,7-dihydro-2H-pyrido[2′,1′:3,4]pyrazino[1,2-b]indazole-3-carboxylic Acid] and `COCC(C)(C)C1Cn2nc3c(OC)cccc3c2-c2cc(=O)c(C(=O)O)cn21` (single isomer, unassigned) [Example 4.1-I, 10-methoxy-6-(1-methoxy-2-methylpropan-2-yl)-2-oxo-6,7-dihydro-2H-pyrido[2′,1′:3,4]pyrazino[1,2-b]indazole-3-carboxylic Acid] cannot be ordered by EC50: under 1 nM for the first, under 1 nM for the second.

With `CC(C)Oc1cccc2c3n(nc12)CC(C(C)(C)C)n1cc(C(=O)O)c(=O)cc1-3` (single isomer, unassigned) [Example 2.47-I, 6-(tert-butyl)-10-isopropoxy-2-oxo-6,7-dihydro-2H-pyrido[2′,1′:3,4]pyrazino[1,2-b]indazole-3-carboxylic Acid] the EC50 was over 100 nM.
